The values below come from patent publication US10323045B2, “Thienopyrimidine derivatives as NIK inhibitors” (Janssen Pharmaceutica NV, priority 2014, dated 2019).

The structures appear in SMILES notation. Where only a bound is given, the exact number is not on record here.

One assay deals with LP-1 cells. Briefly: Antiproliferative activity on LP-1 cells (CellTiter-Glo). Type of assay: cell-based. The conditions noted are these: Homo sapiens, 72 hr of treatment, averaged values. On the procedure:
(§1) Determination of Antiproliferative Activity on LP-1, L-363 and JJN-3 Cells
(§2) All compounds tested were dissolved in DMSO and further dilutions were made in culture medium. Final DMSO concentration was 0.3% (v/v) in cell proliferation assays.
(§3) Viability was assessed using CellTiter-Glo cell viability assay kit (Promega). The human LP-1, L-363 and JJN-3 cells (DSMZ) were cultured in RPMI 1640 medium supplemented with 2 mM L-glutamine, and 10% fetal calf serum (PAA). Cells were routinely kept as suspension cells at 37° C. in a humidified 5% C02 atmosphere. Cells were passaged at a seeding density of 0.2×10^6/ml twice a week. Cells were seeded in black tissue culture treated 96-well plates (Perkin Elmer). Densities used for plating ranged from 2,000 to 6,000 cells per well in a total volume of 75 μl medium. After twenty four hours, drugs and/or solvents were added (25 μl) to a final volume of 100 μl. Following 72 hr of treatment plates were removed from the incubator and allowed to equilibrate to room temperature for approx 10 min. 100 μl CellTiter-Glo reagent was added to each well that was then covered (Perkin Elmer Topseal) and shaken on plate shaker for 10 min. Luminescence was measured on a HTS Topcount (Perkin Elmer). Within an experiment, the results for each treatment were the mean of 2 replicate wells.
(§4) For initial screening purposes, compounds were tested using a 9 point dilution curve (serial 1:3 dilutions). For each experiment, controls (containing no drug) and a blank incubation (containing cells read at the time of compound addition) were run in parallel. The blank value was subtracted from all control and sample values. For each sample, the mean value for cell growth (in relative light units) was expressed as a percentage of the mean value for cell growth of the control.

Assay [1] concerns the target Recombinant Human NF-kappaB-inducing Kinase (NIK/MAP3K14) (Homo sapiens, UniProt Q99558). The assay is described as follows: Inhibition of auto-phosphorylation of recombinant human NIK/MAP3K14 (AlphaScreen). The following applies: GST-tagged NIK/MAP3K14 0.2 nM, 25 microM ATP, 1 h at 25° C.; averaged over all measurements on all batches; read-out: Alpha-Screen IC50. Format: biochemical. As for the experimental part: Inhibition of Auto-phosphorylation of Recombinant Human NF-kappaB-inducing Kinase (NIK/MAP3K14) Activity (AlphaScreen®)
NIK/MAP3K14 auto-phosphorylation activity was measured using the AlphaScreen® (αscreen) format (Perkin Elmer). All compounds tested were dissolved in dimethyl sulfoxide (DMSO) and further dilutions were made in assay buffer. Final DMSO concentration was 1% (v/v) in assays. Assay buffer was 50 mM Tris pH 7.5 containing 1 mM EGTA (ethylene glycol tetraacetic acid), 1 mM DTT (dithiothreitol), 0.1 mM Na3VO4, 5 mM MgCl2, 0.01% Tween® 20. Assays were carried out in 384 well Alphaplates (Perkin Elmer). Incubations consisted of compound, 25 microM Adenosine-5′-triphosphate (ATP), and 0.2 nM NIK/MAP3K14. Incubations were initiated by addition of GST-tagged NIK/MAP3K14 enzyme, carried out for 1 h at 25° C. and terminated by addition of stop buffer containing anti-phospho-IKK Ser176/180 antibody. Protein A Acceptor and Glutathione-Donor beads were added before reading using an EnVision® Multilabel Plate Reader (Perkin Elmer). Signal obtained in the wells containing blank samples was subtracted from all other wells and IC50's were determined by fitting a sigmoidal curve to % inhibition of control versus Log10 compound concentration.
Background: In Alpha technology, singlet oxygen from a donor bead excites a nearby acceptor bead.

In another assay the test system is L-363 cells. Briefly: Antiproliferative activity on L-363 cells (CellTiter-Glo). Format: cell-based. The following applies: Homo sapiens, 72 hr of treatment, averaged values. On the procedure:
as §1, §2, §3, §4
(In ATP-based viability assays light output follows the ATP content of the culture.)

In a further assay the test system is JJN-3 cells. Briefly: Antiproliferative activity on JJN-3 cells (CellTiter-Glo). Type of assay: cell-based. The following applies: Homo sapiens, 72 hr of treatment, averaged values. On the procedure: as §1, §2, §3, §4
The subject of assay [2] is P-IKKα levels in L363 cells. Briefly: Effect of compounds on P-IKKα levels in L363 cells. Format: cell-based. The following applies: Homo sapiens, L-363; L363 cells with BAFF, 2 hr treatment, P-IKKα by sandwich immuno-assay (Mesoscale); averaged values; read-out: IKKα Cellular IC50. As for the experimental part:
Effect of Compounds on P-IKKα Levels in L363 Cells
All compounds tested were dissolved in DMSO and further dilutions were made in culture medium. Final DMSO concentration was 1% (v/v) in cell assays. The human L363 cells (ATCC) were cultured in RPMI 1640 medium supplemented with GlutaMax and 10% fetal calf serum (PAA). Cells were routinely maintained at densities of 0.2×10^6 cells per ml-1×10^6 cells per ml at 37° C. in a humidified 5% C02 atmosphere. Cells were passaged twice a week splitting back to obtain the low density. Cells were seeded in 96 well plates (Nunc 167008) at 2×10^6 per ml media in a volume of 75 μl per well plus 25 μl 1 μg/ml recombinant human B-cell activating factor (BAFF/BLyS/TNFSF13B). Seeded cells were incubated at 37° C. in a humidified 5% CO2 atmosphere for 24 hr. Drugs and/or solvents were added (20 μl) to a final volume of 120 μl. Following 2 hr treatment plates were removed from the incubator and cell lysis was achieved by the addition of 30 μl 5× lysis buffer followed by shaking on a plate shaker at 4° C. for 10 min. At the end of this incubation lysed cells were centrifuged at 800×g for 20 min at 4° C. and the lysate was assessed for P-IKKα levels by sandwich immuno-assay carried out in anti-rabbit antibody coated Mesoscale plates. Within an experiment, the results for each treatment were the mean of 2 replicate wells.
For initial screening purposes, compounds were tested using an 8 point dilution curve (serial 1:3 dilutions). For each experiment, controls (containing MG132 and BAFF but no test drug) and a blank incubation (containing MG132 and BAFF and 10 μM ADS 125117, a test concentration known to give full inhibition) were run in parallel. The blank incubation value was subtracted from all control and sample values. To determine the IC50 a sigmoidal curve was fitted to the plot of % inhibition of control P-IKKα levels versus Log10 compound concentration.

Chain of Recombinant Human NF-kappaB-inducing Kinase (NIK/MAP3K14) (Q99558 whole entry): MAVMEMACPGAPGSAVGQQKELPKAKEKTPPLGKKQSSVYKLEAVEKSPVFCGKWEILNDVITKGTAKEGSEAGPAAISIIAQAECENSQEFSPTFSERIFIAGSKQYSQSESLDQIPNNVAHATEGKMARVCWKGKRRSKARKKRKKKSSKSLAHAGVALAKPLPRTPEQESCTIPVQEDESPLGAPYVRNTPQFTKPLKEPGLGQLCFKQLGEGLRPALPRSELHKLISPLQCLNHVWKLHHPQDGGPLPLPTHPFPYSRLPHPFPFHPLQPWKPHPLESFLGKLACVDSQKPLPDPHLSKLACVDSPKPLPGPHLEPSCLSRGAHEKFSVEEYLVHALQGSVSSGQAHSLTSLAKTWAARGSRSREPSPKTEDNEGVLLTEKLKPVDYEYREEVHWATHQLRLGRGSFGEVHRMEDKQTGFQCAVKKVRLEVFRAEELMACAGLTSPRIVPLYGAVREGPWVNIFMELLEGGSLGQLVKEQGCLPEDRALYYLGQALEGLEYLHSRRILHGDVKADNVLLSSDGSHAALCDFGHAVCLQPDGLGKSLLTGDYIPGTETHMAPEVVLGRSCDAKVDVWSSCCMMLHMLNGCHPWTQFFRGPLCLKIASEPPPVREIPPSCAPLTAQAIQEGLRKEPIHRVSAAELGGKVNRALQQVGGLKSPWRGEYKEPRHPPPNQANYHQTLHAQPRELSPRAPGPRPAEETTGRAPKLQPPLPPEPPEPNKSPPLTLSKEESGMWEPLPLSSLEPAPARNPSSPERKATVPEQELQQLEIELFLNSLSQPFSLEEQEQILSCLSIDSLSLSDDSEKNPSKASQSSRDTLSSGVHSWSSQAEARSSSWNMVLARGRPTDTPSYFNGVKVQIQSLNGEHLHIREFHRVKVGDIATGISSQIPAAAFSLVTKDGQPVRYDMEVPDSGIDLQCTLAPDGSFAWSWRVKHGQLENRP

Consider `CC(O)(C#Cc1cc2c(-c3nc(N)nc4ccsc34)cn(C3CN(C4CC4)C3)c2cn1)C1CC1` (single isomer, unassigned) [Compound 11], for which the EC50 with LP-1 cells turned out to be 918 nM; in the assay with L-363 cells, 461 nM; in the assay on JJN-3 cells, 652 nM. Besides, the IC50 in assay [1] was found to be 26 nM.

With `CC(C)(O)C#Cc1cc2c(ccn2-c2nc(N)nc3ccsc23)cn1` [Compound 1], the 50% inhibitory concentration (IC50) was found to be 104 nM in assay [2] and 15 nM in assay [1]. Besides, the values for the concentration for a half-maximal effect (EC50) with LP-1 cells, in the assay on L-363 cells and in the assay on JJN-3 cells were 2220 nM, 979 nM and 764 nM, respectively.

For `CC(C)(O)C#Cc1cc2c(cn1)c(CCC(C)(C)O)cn2-c1nc(N)nc2ccsc12` [Compound 2], the IC50 is 339 nM in assay [2] and 9 nM in assay [1]. Moreover, the values for the EC50 with LP-1 cells, in the assay with L-363 cells and in the assay with JJN-3 cells were 10300 nM, 2800 nM and 1470 nM, respectively.

Consider `CN1CCC(c2cn(-c3nc(N)nc4ccsc34)c3cc(C#CC(C)(C)O)ncc23)CC1` [Compound 3], for which the half-maximal effective concentration (EC50) stood at 3980 nM in the assay on LP-1 cells, 258 nM with L-363 cells and 540 nM in the assay on JJN-3 cells. Besides, the IC50 in assay [1] came to 140 nM.

As for `CC(C)c1cn(-c2nc(N)nc3ccsc23)c2cc(C#CC(C)(C)O)ncc12` [Compound 4], the 50% effective concentration (EC50) in the assay with LP-1 cells amounted to 3130 nM; with L-363 cells, 1580 nM; in the assay with JJN-3 cells, 1740 nM. Also, the IC50 in assay [1] came out at 26 nM.

Consider `COCCCn1cc(-c2nc(N)nc3ccsc23)c2cc(C#CC(C)(C)O)ncc21` [Compound 5], for which the IC50 is 64 nM in assay [2] and 19 nM in assay [1]. Also, the EC50 in the assay with LP-1 cells was determined as 1680 nM; in the assay on L-363 cells, 395 nM; in the assay with JJN-3 cells, 299 nM.

Regarding `COCCCc1cn(-c2nc(N)nc3ccsc23)c2cc(C#CC(C)(C)O)ncc12` [Compound 6], the half-maximal effective concentration (EC50) amounted to 3430 nM with LP-1 cells, 1040 nM with L-363 cells and 580 nM in the assay on JJN-3 cells. The IC50 in assay [1] worked out at 15 nM.

On to `CC(C)(O)C#Cc1cc2c(-c3nc(N)nc4ccsc34)cn(C3COC3)c2cn1` [Compound 7], for which the EC50 was greater than 30000 nM in the assay with LP-1 cells, 696 nM in the assay on L-363 cells and 1060 nM in the assay on JJN-3 cells. Further, in assay [1], the concentration for half-maximal inhibition (IC50) is 32 nM.

`CC(O)(C#Cc1cc2c(-c3nc(N)nc4ccsc34)cn(C3CCN(C4CC4)CC3)c2cn1)C1CC1` (centres unmarked) [Compound 8]: the EC50 was determined as 38 nM in the assay on LP-1 cells, 4 nM in the assay with L-363 cells and 16 nM in the assay with JJN-3 cells. Further, the IC50 in assay [1] amounted to 112 nM.

Turning to `[2H]C([2H])([2H])C(O)(C#Cc1cc2c(-c3nc(N)nc4ccsc34)cn(C3CCN(C4CC4)CC3)c2cn1)C([2H])([2H])[2H]` [Compound 9], the EC50 was found to be 85 nM with LP-1 cells, 7 nM in the assay on L-363 cells and 24 nM with JJN-3 cells. For the same compound, the IC50 in assay [1] was determined as 20 nM.

`[2H]C([2H])([2H])C(O)(C#Cc1cc2c(-c3nc(N)nc4ccsc34)cn(C3CN(C4CC4)C3)c2cn1)C([2H])([2H])[2H]` [Compound 10]: the concentration giving a half-maximal response (EC50) with LP-1 cells worked out at 1480 nM; in the assay on L-363 cells it was 610 nM; with JJN-3 cells it was 494 nM. In addition, the IC50 in assay [1] is 52 nM.

Regarding `[2H]C([2H])([2H])C(O)(C#Cc1cc2c(-c3nc(N)nc4ccsc34)cn(C3CCCN(CC)C3)c2cn1)C([2H])([2H])[2H]` (centres unmarked) [Compound 12], the concentration for a half-maximal effect (EC50) with LP-1 cells turned out to be 783 nM; with L-363 cells it was 243 nM; in the assay with JJN-3 cells, 289 nM. In assay [1], the 50% inhibitory concentration (IC50) is 66 nM.

On to `[2H]C([2H])([2H])C(O)(C#Cc1cc2c(-c3nc(N)nc4ccsc34)cn(CC3CCCN3CC)c2cn1)C([2H])([2H])[2H]` (centres unmarked) [Compound 13], for which the results for the concentration giving a half-maximal response (EC50) in the assay on LP-1 cells, with L-363 cells and with JJN-3 cells were 75 nM, 36 nM and 60 nM, respectively. Further, the IC50 in assay [1] turned out to be 58 nM.

With `[2H]C([2H])([2H])C(O)(C#Cc1cc2c(-c3nc(N)nc4ccsc34)cn(C3CCN(CC)C3)c2cn1)C([2H])([2H])[2H]` (centres unmarked) [Compound 14], the half-maximal effective concentration (EC50) in the assay with LP-1 cells was determined as 655 nM; in the assay with L-363 cells, 122 nM; with JJN-3 cells, 145 nM. The IC50 in assay [1] is 38 nM.

Usually EC50 stands for the midpoint of the concentration-response curve. The IC50 is the concentration that inhibits the measured activity by half.
